Measured values from US20140162980A1, “NOVEL MICROBIOCIDAL DIOXIME ETHER DERIVATIVES” (SYNGENTA CROP PROTECTION LLC, priority 2010, published 2014).

Key:
[1] = tested on: Blumeria graminis f. sp. tritici (Erysiphe graminis f. sp. tritici); assay: Blumeria graminis f. sp. tritici / wheat / leaf disc preventative (powdery mildew on wheat); type: in vivo; details: foliar, wheat leaf segments cv. Kanzler, inoculated 1 day after application, assessed 6-8 days after application, read-out: control of Blumeria graminis (percent disease control compared to untreated)
Description: Blumeria Graminis f. Sp. Tritici (Erysiphe Graminis f. Sp. Tritici)/Wheat/Leaf Disc Preventative (Powdery Mildew on Wheat):
Wheat leaf segments cv. Kanzler were placed on agar in a 24-well plate and sprayed with the formulated test compound diluted in water at an application rate of 200 ppm. The leaf disks were inoculated by shaking powdery mildew infected plants above the test plates 1 day after application. The inoculated leaf disks were incubated at 20° C. and 60% relative humidity under a light regime of 24 h darkness followed by 12 h/12 h (dark/light) in a climate chamber and the activity of a compound was assessed as percent disease control compared to untreated when an appropriate level of disease damage appears on untreated check leaf segments (6-8 days after application). The following compounds gave at least 80% control of Blumeria graminis: […]

[2] = tested on: Puccinia recondita f. sp. tritici; assay: Puccinia recondita f. sp. tritici / wheat / leaf disc preventative (brown rust); type: in vivo; details: foliar, wheat leaf segments cv Kanzler, inoculated 1 day after application, assessed 7-9 days after application, read-out: control of Puccinia recondita f. sp. tritici, preventative (percent disease control compared to untreated)
Description: Puccinia Recondita f. Sp. Tritici/Wheat/Leaf Disc Preventative (Brown Rust): Wheat leaf segments cultivated variety (cv) Kanzler were placed on agar in 24-well plates and sprayed with formulated test compound diluted in water at an application rate of 200 ppm. The leaf disks were inoculated with a spore suspension of the fungus 1 day after application. The inoculated leaf segments were incubated at 19° C. and 75% relative humidity under a light regime of 12/12 h (light/dark) in a climate cabinet and the activity of a compound was assessed as percent disease control compared to untreated when an appropriate level of disease damage appears in untreated check leaf segments (7-9 days after application).

[3] = tested on: Puccinia recondita f. sp. tritici; assay: Puccinia recondita f. sp. tritici / wheat / leaf disc curative (brown rust); type: in vivo; details: foliar, 200 ppm applied 1 day after inoculation, wheat leaf segments cv Kanzler, assessed 6-8 days after application, read-out: control of Puccinia recondita f. sp. tritici, curative (percent disease control compared to untreated)
Description: Puccinia Recondita f. Sp. Tritici/Wheat/Leaf Disc Curative (Brown Rust): Wheat leaf segments cv Kanzler were placed on agar in 24-well plates. The leaf segments were inoculated with a spore suspension of the fungus. The plates were stored in darkness at 19° C. and 75% relative humidity. The formulated test compound diluted in water was applied at an application rate of 200 ppm 1 day after inoculation.

[4] = tested on: Magnaporthe grisea (Pyricularia oryzae); assay: whole plant or invertebrate; type: in vivo; details: foliar, read-out: control of Magnaporthe grisea (percent disease control compared to untreated)
[5] = tested on: Phaeosphaeria nodorum (Septoria nodorum); assay: Phaeosphaeria nodorum (Septoria nodorum) / wheat / leaf disc preventative (glume blotch); type: in vivo; details: Parastagonospora nodorum, foliar, wheat leaf segments cv Kanzler, inoculated 2 days after application, assessed 5-7 days after application, read-out: control of Phaeosphaeria nodorum (percent disease control compared to untreated)
Description: Phaeosphaeria Nodorum (Septoria nodorum)/Wheat/Leaf Disc Preventative (Glume Blotch): Wheat leaf segments cv Kanzler were placed on agar in a 24-well plate and sprayed with formulated test compound diluted in water at an application rate of 200 ppm. The leaf disks are inoculated with a spore suspension of the fungus 2 days after application. The inoculated test leaf disks are incubated at 20° C. and 75% relative humidity under a light regime of 12/12 h (light/dark) in a climate cabinet and the activity of a compound is assessed as percent disease control compared to untreated when an appropriate level of disease damage appears in untreated check leaf disks (5-7 days after application).

Pyrenophora teres = Pyrenophora teres / barley / leaf disc preventative (net blotch); type: in vivo; details: foliar, barley leaf segments cv Hasso, inoculated two days after application, assessed 5-7 days after application, read-out: control of Pyrenophora teres (disease control compared to untreated)
Description: Pyrenophora Teres/Barley/Leaf Disc Preventative (Net Blotch): Barley leaf segments cv Hasso are placed on agar in a 24-well plate and sprayed with formulated test compound diluted in water at an application rate of 200 ppm. The leaf segments are inoculated with a spore suspension of the fungus two days after application of the test solution. The inoculated leaf segments are incubated at 20° C. and 65% relative humidity under a light regime of 12/12 h (light/dark) in a climate cabinet and the activity of a compound is assessed as disease control compared to untreated when an appropriate level of disease damage appears in untreated check leaf segments (5-7 days after application).

[6] = tested on: Botryotinia fuckeliana (Botrytis cinerea); assay: Botryotinia fuckeliana (Botrytis cinerea) / liquid culture (gray mould); type: cell-based; details: Vogels broth, 24° C., 3-4 days after application, read-out: control of Botryotinia fuckeliana (inhibition of growth, photometrically)
Description: Botryotinia Fuckeliana (Botrytis cinerea)/Liquid Culture (Gray Mould): Conidia of the fungus from cryogenic storage were directly mixed into nutrient broth (Vogels broth). After placing a DMSO solution of test compound into a 96-well microtiter plate at an application rate 200 ppm, the nutrient broth containing the fungal spores was added. The test plates were incubated at 24° C. and the inhibition of growth was determined photometrically 3-4 days after application.

Pythium ultimum = Pythium ultimum / liquid culture (seedling damping off); type: cell-based; details: Globisporangium ultimum, PDB potato dextrose broth, 24° C., 2-3 days after application, read-out: control of Pythium ultimum (inhibition of growth, photometrically)
Description: Pythium Ultimum/Liquid Culture (Seedling Damping Off): Mycelia fragments and oospores of a newly grown liquid culture of the fungus were directly mixed into nutrient broth (PDB potato dextrose broth). After placing a DMSO solution of test compound into a 96 well microtiter plate at an application rate 200 ppm, the nutrient broth containing the fungal mycelia/spore mixture was added. The test plates were incubated at 24° C. and the inhibition of growth was determined photometrically 2-3 days after application.

[7] = tested on: Thanatephorus cucumeris (Rhizoctonia solani); assay: Thanatephorus cucumeris (Rhizoctonia solani) / liquid culture (foot rot, damping-off); type: cell-based; details: PDB potato dextrose broth, 24° C., 3-4 days after application, read-out: control of Thanatephorus cucumeris (inhibition of growth, photometrically)
Description: Thanatephorus Cucumeris (Rhizoctonia solani)/Liquid Culture (Foot Rot, Damping-Off): Mycelia fragments of a newly grown liquid culture of the fungus are directly mixed into nutrient broth (PDB potato dextrose broth). After placing a DMSO solution of the test compounds into a 96-well microtiter plate at an application rate 200 ppm, the nutrient broth containing the fungal material was added. The test plates were incubated at 24° C. and the inhibition of growth was determined photometrically 3-4 days after application.

Phytophthora infestans = assay: whole plant or invertebrate; type: in vivo; details: in Solanum lycopersicum, foliar, read-out: control of Phytophthora infestans (percent disease control compared to untreated)

Cc1cc(C(F)F)c2c(n1)/C(=N/OCC1(CO/N=C3\CCCc4c(C(F)F)cc(C)nc43)CC1)CCC2 [P.45]
≥ 80%: pest or weed control at 200 ppm [1] | pest or weed control at 200 ppm [2] | pest or weed control at 200 ppm [3] | pest or weed control at 200 ppm [4] | pest or weed control at 200 ppm [5] | pest or weed control at 200 ppm (Pyrenophora teres) | inhibition at 200 ppm [6]

COCc1cc(C)c2c(n1)/C(=N/OCC(C)(C)CO/N=C1\CCCc3ccc(C)nc31)CCC2 [P.42]
≥ 80%: pest or weed control at 200 ppm [1] | pest or weed control at 200 ppm [2] | pest or weed control at 200 ppm [3] | pest or weed control at 200 ppm [4] | pest or weed control at 200 ppm [5] | pest or weed control at 200 ppm (Pyrenophora teres) | inhibition at 200 ppm (Pythium ultimum) | inhibition at 200 ppm [6]

CSc1cc(C)nc2c1CCC/C2=N\OCCCO/N=C1\CCCc2c(SC)cc(C)nc21 [P.43]
≥ 80%: inhibition at 200 ppm [6]

FCc1ccnc2c1CCC/C2=N\OCCCO/N=C1\CCCc2c(CF)ccnc21 [P.36]
≥ 80%: inhibition at 200 ppm [6]

Cc1c2c(nc3ccccc13)/C(=N/OCCCO/N=C1\CCCc3c1nc1ccccc1c3C)CCC2 [P.25]
≥ 80%: pest or weed control at 200 ppm [1] | pest or weed control at 200 ppm [2] | pest or weed control at 200 ppm [5] | pest or weed control at 200 ppm (Pyrenophora teres) | inhibition at 200 ppm [6]

Cc1ccc2c(n1)/C(=N/OCC1(CO/N=C3\CCCc4ccc(C)nc43)CC1)CCC2 [P.03]
≥ 80%: pest or weed control at 200 ppm [1] | pest or weed control at 200 ppm [2] | pest or weed control at 200 ppm [3] | pest or weed control at 200 ppm [5] | pest or weed control at 200 ppm (Pyrenophora teres) | inhibition at 200 ppm (Pythium ultimum) | inhibition at 200 ppm [6]

Cc1c2c(nc3ccccc13)/C(=N/OCC(C)(C)CO/N=C1\CCCc3c1nc1ccccc1c3C)CCC2 [P.28]
≥ 80%: pest or weed control at 200 ppm [1] | pest or weed control at 200 ppm [5] | pest or weed control at 200 ppm (Pyrenophora teres) | inhibition at 200 ppm [6]

Cc1ccc2c(n1)/C(=N/OCC(F)CO/N=C1\CCCc3ccc(C)nc31)CCC2 (centres unmarked) [P.14]
≥ 80%: pest or weed control at 200 ppm [1] | pest or weed control at 200 ppm [2] | pest or weed control at 200 ppm [3] | pest or weed control at 200 ppm [5] | inhibition at 200 ppm (Pythium ultimum) | inhibition at 200 ppm [6]

Cc1ccc2c(n1)/C(=N/OCC(C)(C)CO/N=C1\CCCc3c(N4CCCC4)cc(C)nc31)CCC2 [P.41]
≥ 80%: pest or weed control at 200 ppm [1] | pest or weed control at 200 ppm [5] | pest or weed control at 200 ppm (Pyrenophora teres) | inhibition at 200 ppm [6] | inhibition at 200 ppm [7]

Cc1ccc2c(n1)/C(=N/OCC(C)(C)CO/N=C1\CCc3ccc(C)nc31)CCC2 [P.08]
≥ 80%: pest or weed control at 200 ppm [1] | inhibition at 200 ppm [6]

Cc1cc(CF)nc2c1CCC/C2=N\OCC(C)(C)CO/N=C1\CCCc2c(C)cc(CF)nc21 [P.34]
≥ 80%: pest or weed control at 200 ppm [3] | pest or weed control at 200 ppm [4] | pest or weed control at 200 ppm [5] | pest or weed control at 200 ppm (Pyrenophora teres) | inhibition at 200 ppm [6]

Cc1ccc2c(n1)/C(=N/OCC(C)(C)CO/N=C1\CC(C)Cc3ccc(-c4ccc(Cl)cc4)nc31)CCC2 (centres unmarked) [P.22]
≥ 80%: pest or weed control at 200 ppm [5] | inhibition at 200 ppm [6]

Cc1cc(Cl)c2c(n1)/C(=N/OCC1(CO/N=C3\CCCc4c(Cl)cc(C)nc43)CC1)CCC2 [P.12]
≥ 80%: inhibition at 200 ppm [6] | inhibition at 200 ppm [7]

Cc1ccc2c(n1)/C(=N/OCCCO/N=C1\CCCc3ccc(C(F)(F)F)nc31)CCC2 [P.47]
≥ 80%: pest or weed control at 200 ppm [1] | pest or weed control at 200 ppm [2] | pest or weed control at 200 ppm [3] | pest or weed control at 200 ppm [5] | pest or weed control at 200 ppm (Pyrenophora teres) | inhibition at 200 ppm [6]

Cc1ccc2c(n1)/C(=N/OCC(Cl)CO/N=C1\CCCc3ccc(C)nc31)CCC2 (centres unmarked) [P.24]
≥ 80%: pest or weed control at 200 ppm [1] | pest or weed control at 200 ppm [2] | pest or weed control at 200 ppm [3] | pest or weed control at 200 ppm [5] | pest or weed control at 200 ppm (Pyrenophora teres) | inhibition at 200 ppm (Pythium ultimum) | inhibition at 200 ppm [6]

Cc1ccc2c(n1)/C(=N/OCC(CO/N=C1\CCCc3ccc(C)nc31)c1ccccc1)CCC2 (centres unmarked) [P.04]
≥ 80%: pest or weed control at 200 ppm (Phytophthora infestans) | pest or weed control at 200 ppm [1] | pest or weed control at 200 ppm [2] | pest or weed control at 200 ppm [3] | pest or weed control at 200 ppm [5] | pest or weed control at 200 ppm (Pyrenophora teres) | inhibition at 200 ppm [6]

CC(C)(CO/N=C1\CCCc2cc3c(nc21)CCCC3)CO/N=C1\CCCc2cc3c(nc21)CCCC3 [P.50]
≥ 80%: pest or weed control at 200 ppm [1] | pest or weed control at 200 ppm [5] | pest or weed control at 200 ppm (Pyrenophora teres) | inhibition at 200 ppm [6] | inhibition at 200 ppm [7]

Cc1cc(CF)c2c(n1)/C(=N/OCCCO/N=C1\CCCc3c(CF)cc(C)nc31)CCC2 [P.48]
≥ 80%: pest or weed control at 200 ppm [1] | pest or weed control at 200 ppm [2] | pest or weed control at 200 ppm [3] | pest or weed control at 200 ppm [4] | pest or weed control at 200 ppm [5] | pest or weed control at 200 ppm (Pyrenophora teres) | inhibition at 200 ppm (Pythium ultimum) | inhibition at 200 ppm [6]

COc1ccc2c(n1)/C(=N/OCC1(CO/N=C3\CCCc4ccc(OC)nc43)CC1)CCC2 [P.13]
≥ 80%: pest or weed control at 200 ppm [1] | pest or weed control at 200 ppm [2] | pest or weed control at 200 ppm [3] | pest or weed control at 200 ppm [5] | pest or weed control at 200 ppm (Pyrenophora teres) | inhibition at 200 ppm [6] | inhibition at 200 ppm [7]

Cc1ccc2c(n1)/C(=N/OCC(C)(C)CO/N=C1\CCc3ccc(Cl)nc31)CCC2 [P.01]
≥ 80%: inhibition at 200 ppm [6]

Cc1ccc2c(n1)/C(=N/OCC(O)CO/N=C1\CCCc3ccc(C)nc31)CCC2 (centres unmarked) [P.11]
≥ 80%: pest or weed control at 200 ppm [2] | pest or weed control at 200 ppm [3] | pest or weed control at 200 ppm [5] | pest or weed control at 200 ppm (Pyrenophora teres)

Cc1c2c(nc3ccccc13)/C(=N/OCC1(CO/N=C3\CCCc4c3nc3ccccc3c4C)CC1)CCC2 [P.27]
≥ 80%: pest or weed control at 200 ppm [1] | pest or weed control at 200 ppm [5] | pest or weed control at 200 ppm (Pyrenophora teres) | inhibition at 200 ppm [6]
